Measurements reported in PMC5587682 (Scientific Reports, 2017).
Where two headings read alike, the source gives them in different places. Positions of bridges follow the written chain, without caps; N, C: chain ends. Residues, ends and D or L forms follow the SMILES beside them.

How the values were obtained:
A/Parma/05/06 H3N2 [1] = tested on: A/Parma/05/06 H3N2
A/Parma/05/06 H3N2 [2] = assay type: cell-based, Influenza A virus; conditions: turkey erythrocytes
[3] = tested on: A/Roma-ISS/02/08 H1N1 oseltamivir-sensitive virus; assay type: cell-based, Influenza A virus; conditions: turkey erythrocytes
[4] = tested on: Influenza A virus strains (all tested viruses); conditions: earlier work; ref [23]; cited from earlier work
[5] = tested on: Influenza A virus strains (all tested viruses); conditions: earlier work; ref [23]; cited from earlier work; remark: listed apart in the source
[6] = A/Roma-ISS/2/08 H1N1, neutralization
[7] = A/Roma-ISS/02/08 H1N1, MDCK cells, CC50 >25 μM
[8] = A/Roma-ISS/02/08 H1N1, MDCK cells, mean of 3 experiments with standard errors
[9] = A/Parma/05/06 H3N2, MDCK cells, CC50 >25 μM
[10] = A/Parma/05/06 H3N2, MDCK cells, mean of 3 experiments with standard errors
[11] = A/Parma/24/09 H1N1, MDCK cells, CC50 >25 μM
[12] = A/Parma/24/09 H1N1, MDCK cells, mean of 3 experiments with standard errors

| Compound | SI (CC50/EC50) (A/Roma-ISS/02/08 H1N1; [7]) | SI (CC50/EC50) (A/Parma/05/06 H3N2 [1]; [9]) | HI titer (A/Parma/05/06 H3N2 [2]) [nM] | HI titer [3] [nM] | SI (CC50/EC50) (A/Parma/24/09 H1N1; [11]) | further results |
| --- | --- | --- | --- | --- | --- | --- |
| CC(C)C[C@H](NC(=O)[C@H](CO)NC(=O)[C@H](CO)NC(=O)[C@H](Cc1c[nH]cn1)NC(=O)[C@H](CCCCN)NC(=O)[C@@H](N)CO)C(=O)N[C@@H](CC(=O)O)C(=O)N[C@@H](CS)C(=O)O [Peptide 16, SKHSSLDC] (H-SKHSSLDC-OH; N-terminus and C-terminus assumed) | >3.125.10^5 | >5.10^6 | 12 | 0.3 | >2.5.10^8 | fold less active than 1 (A/Roma-ISS/02/08 H1N1; [6]): 20 fold; fold less active than 13 (A/Roma-ISS/02/08 H1N1; [6]): 270 fold; EC50 (A/Roma-ISS/02/08 H1N1; [8]): 80 ± 0.19 pM; EC50 (A/Parma/05/06 H3N2 [1]; [10]): 5 ± 0.45 pM; fold more potent than 1 (A/Parma/24/09 H1N1; A/Parma/24/09 H1N1, neutralization): 30 fold |
| CC(=O)N[C@H](C(=O)N[C@@H](CC(C)C)C(=O)N[C@@H](CCCNC(=N)N)C(=O)N1CCC[C@H]1C(N)=O)C(C)C [Peptide 14, VLRP] (Ac-VLRP-NH2) | – | – | – | – | – | SI (CC50/EC50) (A/Roma-ISS/02/08 H1N1): >5.55.10^7; SI (CC50/EC50) (A/Parma/05/06 H3N2 [1]): >1.10^5; EC50 (A/Parma/05/06 H3N2 [1]; A/Parma/05/06, 1 h): 250 ± 0.42 pM; SI (CC50/EC50) (A/Parma/24/09 H1N1): >2.5.10^7; EC50 (A/Parma/24/09 H1N1; A/Parma/24/09, 1 h): 1 ± 0.05 pM |
| AGDDQGLDKCVPNSKEK [Peptide 2, bLf C-lobe fragment 506–522] | – | – | – | – | – | concentration inhibiting viral hemagglutination [4]: low picomolar; concentration inhibiting viral infection [5]: low picomolar |
| NRKSSKHSSLDCVLRPTEGY [Peptide 10, bLf C-lobe fragment 414–433] | – | – | 0.0014 | 0.3 | – | – |
| CC(=O)N[C@@H](CO)C(=O)N[C@@H](CC(C)C)C(=O)N[C@@H](CC(=O)O)C(=O)N[C@@H](CS)C(N)=O [Peptide 15, SLDC] (Ac-SLDC-NH2) | >5.10^7 | – | – | – | >5.4.10^6 | EC50 (A/Parma/24/09 H1N1; [12]): 4.6 ± 0.05 pM |
| C[C@H](NC(=O)CNC(=O)[C@@H]1CCCN1C(=O)[C@H](C)NC(=O)[C@@H]1CSSC[C@H](NC(=O)[C@H](CO)NC(=O)CNC(=O)[C@@H](N)[C@@H](C)O)C(=O)N[C@@H](C)C(=O)N[C@@H](Cc2ccccc2)C(=O)N[C@@H](CC(=O)O)C(=O)N[C@@H](CCC(=O)O)C(=O)N[C@@H](Cc2ccccc2)C(=O)N[C@@H](Cc2ccccc2)C(=O)N[C@@H](CO)C(=O)N[C@@H](CCC(N)=O)C(=O)N[C@@H](CO)C(=O)N1)C(=O)N[C@@H](CC(=O)O)C(=O)N1CCC[C@H]1C(=O)N[C@@H](CCCCN)C(=O)N[C@@H](CO)C(=O)N[C@@H](CCCNC(=N)N)C(=O)O [Peptide 5] (H-TGSCAFDEFFSQSCAPGADPKSR-OH; disulfide 4-14; N-terminus assumed) | – | – | 97 | – | – | – |
| CC(C)C[C@H](NC(=O)CNC(=O)[C@H](CCC(=O)O)NC(=O)[C@H](CC(N)=O)NC(=O)[C@H](C)NC(=O)[C@@H](N)CCCCN)C(=O)N[C@H](C(=O)N[C@@H](Cc1c[nH]c2ccccc12)C(=O)N[C@@H](CC(N)=O)C(=O)N[C@@H](CO)C(=O)N[C@@H](CC(C)C)C(=O)N[C@@H](CCCCN)C(=O)N[C@@H](CC(=O)O)C(=O)N[C@@H](CCCCN)C(=O)O)[C@@H](C)O [Peptide 4, KANEGLTWNSLKDK] (H-KANEGLTWNSLKDK-OH) | >2.5.10^7 | >2.5.10^4 | – | – | >5.10^2 | EC50 (A/Roma-ISS/02/08 H1N1; [8]): 1 ± 0.15 pM |
| CC(C)C[C@H](NC(=O)[C@@H](NC(=O)[C@H](CS)NC(=O)[C@H](CC(=O)O)NC(=O)[C@H](CC(C)C)NC(=O)[C@@H](N)CO)C(C)C)C(=O)N[C@@H](CCCNC(=N)N)C(=O)N1CCC[C@H]1C(N)=O [Peptide 13, SLDCVLRP] (H-SLDCVLRP-NH2) | >8.33.10^7 | >8.33.10^4 | 0.0004 | 0.0007 | >1.10^7 | EC50 (A/Parma/05/06 H3N2 [1]; [10]): 300 ± 0.2 pM; loss of activity with respect to 1 (A/Parma/05/06 H3N2 [1]; H3N2 strain, neutralization): ≈ 50 fold; EC50 (A/Parma/24/09 H1N1; [12]): 2.5 ± 0.37 pM |
| C[C@@H](O)[C@H](NC(=O)[C@H](CCC(=O)O)NC(=O)[C@H](CO)NC(=O)[C@@H](N)CCCCN)C(=O)N[C@@H](CCCCN)C(=O)N[C@@H](CC(N)=O)C(=O)O [Peptide 8, KSETKN] (H-KSETKN-OH; N-terminus and C-terminus assumed) | >5.10^7 | >0.65.10^2 | 3 | 1.5 | >5.10^4 | EC50 (A/Parma/24/09 H1N1; [12]): 500 ± 0.46 pM |
| CC(C)C[C@H](NC(=O)[C@H](CO)NC(=O)[C@H](CO)NC(=O)[C@H](Cc1c[nH]cn1)NC(=O)[C@H](CCCCN)NC(=O)[C@@H](N)CO)C(=O)N[C@@H](CC(=O)O)C(=O)N[C@@H](CS)C(=O)N[C@H](C(=O)N[C@@H](CC(C)C)C(=O)N[C@@H](CCCNC(=N)N)C(=O)N1CCC[C@H]1C(=O)O)C(C)C [Peptide 1, SKHSSLDCVLRP] (H-SKHSSLDCVLRP-OH) | >6.25.10^6 | >4.4.10^6 | – | – | >8.10^6 | – |
| NGESSADWAKN [Peptide 3] | – | – | – | – | – | concentration inhibiting viral hemagglutination [4]: low picomolar; concentration inhibiting viral infection [5]: low picomolar |
| SKHSSLDCVLRPTEGY [Peptide 12, bLf C-lobe fragment 418–433] | – | – | 0.03 | 0.7 | – | – |
| NRKSSKHSSLDCVLRP [Peptide 11, bLf C-lobe fragment 414–429] | – | – | 0.4 | – | – | – |
| C[C@H](NC(=O)[C@H](Cc1c[nH]c2ccccc12)NC(=O)[C@H](CC(=O)O)NC(=O)[C@H](C)NC(=O)[C@@H](NC(=O)[C@H](CO)NC(=O)[C@H](CCC(=O)O)NC(=O)CNC(=O)[C@H](CC(N)=O)NC(=O)[C@@H](N)[C@@H](C)O)[C@@H](C)O)C(=O)N[C@@H](CCCCN)C(=O)N[C@@H](CC(N)=O)C(N)=O [Peptide 6, TNGESTADWAKN] (H-TNGESTADWAKN-NH2; N-terminus and C-terminus assumed) | >6.25.10^4 | >2.5.10^3 | 0.3 | 0.7 | >5.10^2 | EC50 (A/Roma-ISS/02/08 H1N1; [8]): 400 ± 0.02 pM |
| CC(=O)N[C@@H](CO)C(=O)N[C@@H](CCCCN)C(=O)N[C@@H](Cc1c[nH]cn1)C(=O)N[C@@H](CO)C(N)=O [Peptide 17, SKHS] (Ac-SKHS-NH2) | – | – | – | – | – | SI (CC50/EC50) (A/Roma-ISS/02/08 H1N1): >8.33.10^6; EC50 (A/Roma-ISS/02/08 H1N1; A/Roma-ISS/02/08, 1 h): 3 ± 0.61 pM; SI (CC50/EC50) (A/Parma/05/06 H3N2 [1]): >5.10^6; EC50 (A/Parma/05/06 H3N2 [1]; A/Parma/05/06, 1 h): 5 ± 0.02 pM; SI (CC50/EC50) (A/Parma/24/09 H1N1): >5.2.10^8 |
